Patent publication US9724331B2, “Use of maleimide derivatives for preventing and treating leukemia” (CENTOGENE AG, priority 2012, dated 2017)
Entries after “also recorded” stand apart in the source; their conditions may differ.

Test system: PI3K/Akt and Wnt/β-catenin pathway in SEM cells
Experiment: Western blot, PI3K/Akt and Wnt/β-catenin pathway
Type: cell-based, human
Protocol: After treatment with PDA-66 and DMSO, respectively, cells were lyzed and protein expression analyzed with Western blot.
Protein extraction and Western blot was performed as described above. Following polyclonal antibodies were used: rabbit anti-cleaved caspase 3, rabbit anti-caspase 3, rabbit anti-cleaved PARP, rabbit anti-PARP, rabbit anti-cleaved caspase 7, rabbit anti-caspase 7, rabbit anti-pAktThr308, rabbit anti-pAktSer473, rabbit anti-Akt, rabbit anti-β-catenin, rabbit anti-pGSK3βSer9, rabbit anti-GSK3β, rabbit anti-p4EBP-1Ser65 and rabbit anti-4EBP-1 (all Cell Signaling Frankfurt/Main, Germany). Blots were incubated with mouse anti-GAPDH antibody (Invitrogen, Carlsbad, USA) as loading control.

[1] = SEM cells shown exemplarily (FIG. 6A)
[2] = SEM cells, incubation of 4 and 24 h

SMILES: CC(=O)c1ccc(C2=C(c3c(C)[nH]c4ccccc34)C(=O)N(C)C2=O)cc1 [PDA-66, 3-(4-Acetylphenyl)-1-methyl-4-(2-methyl-1H-indol-3-yl)-1H-pyrrole-2,5-dione]
- expression of total Akt [1]: no influence
- expression of total GSK3β [1]: no influence
- expression of β-catenin [1]: no influence
- pGSK3βSer9 (SEM cells, after 4 h): small decrease; also recorded: slight decrease
- expression of p4EBP-1Ser65 [2]: decrease
- expression of total 4EBP-1 [2]: decrease
- pAktSer473 (SEM cells, incubation of 24 h): not confirmed by an increase; also recorded: not confirmed by a rise
- pAktThr308 (SEM cells, incubation of 24 h): slight increase
